Measurements as given in patent publication US5273991A, “Imidazole-containing compositions and methods of use thereof analogs of distamycin” (Research Corporation Technologies, Inc., priority 1992, dated 1993).

What was measured:
Assay in all cases: NCI cytotoxicity screen (SRB)
Assay type in all cases: cell-based, human
CAKI-1 = system: CAKI-1
Experimental: (§1) Compounds 6, 7, 9 and 10 were tested for cytotoxic properties by the National Cancer Institute, Bethesda, Md. The anticancer drug screen utilized a panel of 60 human tumor cell lines organized into subpanels representing leukemia, melanoma, and cancers of the lung, colon, kidney, ovary and central nervous system and is described by Monks et al. (1991) Journal of the National Cancer Institute 83, 757, which is incorporated herein by reference.
(§2) Cell lines were inoculated onto microtiter plates and preincubated for 24-28 hours. 100 μL aliquots of each compound were added to the appropriate microtiter plate wells in each of five 10-fold dilutions starting from a maximum concentration of 10^-4 M in water or DMSO. Cultures were then incubated for an additional 48 hours. Cells were then fixed in situ, followed by staining with sulforhodamine B (SRB), which binds to basic amino acids of cellular macromolecules. The solubilized stain was measured spectrophotometrically to determine relative cell growth or viability in treated and untreated cells. The monoimidazole analogs of Compounds 6, 7, 9 and 10 and the formamido analog corresponding to Compounds 7 and 10 are devoid of activity against the panel of cancer cell lines in Table III.

1GROV1 = system: 1GROV1
Experimental: as §1, §2

RPMI-8226 = system: RPMI-8226
Experimental: as §1, §2

SNB-75 = system: SNB-75
Experimental: as §1, §2

LXFL529 = system: LXFL529
Experimental: as §1, §2

TK-10 = system: TK-10
Experimental: as §1, §2

ACHN = system: ACHN
Experimental: as §1, §2

786-0 = system: 786-0
Experimental: as §1, §2

HOP-92 = conditions: subsequent test date
Experimental: as §1, §2

CCRF-CEM = system: CCRF-CEM
Experimental: as §1, §2

SK-OV-3 = system: SK-OV-3
Experimental: as §1, §2

HOP-18 = conditions: subsequent test date
Experimental: as §1, §2

SK-MEL-5 = system: SK-MEL-5
Experimental: as §1, §2

M19-MEL = system: M19-MEL
Experimental: as §1, §2

RXF-393 = system: RXF-393
Experimental: as §1, §2

OVCAR-8 = system: OVCAR-8
Experimental: as §1, §2

M14 = system: M14
Experimental: as §1, §2

SR = system: SR
Experimental: as §1, §2

OVCAR-4 = system: OVCAR-4
Experimental: as §1, §2

SK-MEL-28 = system: SK-MEL-28
Experimental: as §1, §2

SN12C = system: SN12C
Experimental: as §1, §2

LOX 1MV1 = system: LOX 1MV1
Experimental: as §1, §2

SNB-19 = system: SNB-19
Experimental: as §1, §2

SNB-78 = system: SNB-78
Experimental: as §1, §2

A498 = system: A498
Experimental: as §1, §2

SK-MEL-2 = system: SK-MEL-2
Experimental: as §1, §2

UACC-257 = system: UACC-257
Experimental: as §1, §2

OVCAR-5 = system: OVCAR-5
Experimental: as §1, §2

OVCAR-3 = system: OVCAR-3
Experimental: as §1, §2

UACC-62 = system: UACC-62
Experimental: as §1, §2

RXR-631 = system: RXR-631
Experimental: as §1, §2

LOX IMVI = conditions: 48 h; Melanoma LOX IMVI
Experimental: as §1, §2

[1] = SK-MEL-28, subsequent test date

In the case of `CN(C)CCNC(=O)c1nc(NC(=O)c2nc(NC(=O)c3ccc(N(CCCl)CCCl)cc3)cn2C)cn1C` [Compound 6, N-(N',N'-dimethylaminoethyl)-1-methyl-4-{4-[4,4-bis(2-chloroethyl)aminobenzamido]-1-methylimidazole-2-carboxamido}imidazole-2-carboxamide], the IC50 (CAKI-1; 48 h, Renal Cancer CAKI-1) is reported as 51.9 µM, the IC50 (CAKI-1; CAKI-1, subsequent test date) is reported as 59.7 µM and the IC50 (1GROV1; 1GROV1, subsequent test date) is reported as 59.6 µM. The IC50 (1GROV1; 48 h, Ovarian Cancer 1GROV1) was 50 µM, the IC50 (RPMI-8226; 48 h, Leukemia RPMI-8226) was 30.5 µM and the IC50 (RPMI-8226; RPMI-8226, subsequent test date) was 39.4 µM. The IC50 (SNB-75; 48 h, CNS Cancer SNB-75) was 41 µM, the IC50 (SNB-75; SNB-75, subsequent test date) was 41.7 µM and the IC50 (LXFL529; 48 h, Non-Small Cell Lung Cancer LXFL529) was 13.2 µM. The IC50 (LXFL529; LXFL529, subsequent test date) was 34.8 µM, the IC50 (TK-10; 48 h, Renal Cancer TK-10) was 59.9 µM and the IC50 (TK-10; TK-10, subsequent test date) was 56.2 µM. The IC50 (ACHN; 48 h, Renal Cancer ACHN) was 54.2 µM, the IC50 (ACHN; ACHN, subsequent test date) was 46.9 µM and the IC50 (786-0; 786-0, subsequent test date) was 6.98 µM. For the same compound, the IC50 (786-0; 48 h, Renal Cancer 786-0) was 25.4 µM, the IC50 (HOP-92) was 42.7 µM and the IC50 (CCRF-CEM; 48 h, Leukemia CCRF-CEM) was 10.9 µM. The IC50 (CCRF-CEM; CCRF-CEM, subsequent test date) was 40.3 µM, the IC50 (SK-OV-3; 48 h, Ovarian Cancer SK-OV-3) was 52.9 µM and the IC50 (SK-OV-3; SK-OV-3, subsequent test date) was 6.18 µM. For the same compound, the IC50 (HOP-18) was 10.2 µM, the IC50 (SK-MEL-5; SK-MEL-5, subsequent test date) was 52 µM and the IC50 (M19-MEL; 48 h, Melanoma M19-MEL) was 5.64 µM. It also gave an IC50 (M19-MEL; M19-MEL, subsequent test date) of 5.65 µM, an IC50 (RXF-393; 48 h, Renal Cancer RXF-393) of 50.3 µM and an IC50 (RXF-393; RXF-393, subsequent test date) of 44.3 µM. The IC50 (OVCAR-8; 48 h, Ovarian Cancer OVCAR-8) was 45.3 µM, the IC50 (OVCAR-8; OVCAR-8, subsequent test date) was 20.8 µM and the IC50 (M14; 48 h, Melanoma M14) was 5.92 µM. The IC50 (M14; M14, subsequent test date) was 5.81 µM, the IC50 (SR; 48 h, Leukemia SR) was 10.4 µM and the IC50 (SR; SR, subsequent test date) was greater than 100 µM. It also gave an IC50 (OVCAR-4; 48 h, Ovarian Cancer OVCAR-4) of 34.2 µM, an IC50 (OVCAR-4; OVCAR-4, subsequent test date) of 14.3 µM and an IC50 (SK-MEL-28; 48 h, Melanoma SK-MEL-28) of 5.69 µM. It also gave an IC50 (SK-MEL-28; [1]) of 5.78 µM, an IC50 (SN12C; 48 h, Renal Cancer SN12C) of 15.6 µM and an IC50 (SN12C; SN12C, subsequent test date) of 39.9 µM. It also gave an IC50 (LOX 1MV1; LOX 1MV1, subsequent test date) of 7.47 µM, an IC50 (SNB-19; 48 h, CNS Cancer SNB-19) of 43.7 µM and an IC50 (SNB-19; SNB-19, subsequent test date) of 32.4 µM. The IC50 (SNB-78; 48 h, CNS Cancer SNB-78) was 67.2 µM, the IC50 (SNB-78; SNB-78, subsequent test date) was 78.9 µM and the IC50 (A498; 48 h, Renal Cancer A498) was 40.6 µM. For the same compound, the IC50 (A498; A498, subsequent test date) was 66 µM, the IC50 (SK-MEL-2; 48 h, Melanoma SK-MEL-2) was 7.17 µM and the IC50 (SK-MEL-2; SK-MEL-2, subsequent test date) was 5.85 µM. The IC50 (UACC-257; 48 h, Melanoma UACC-257) was 7.03 µM, the IC50 (UACC-257; UACC-257, subsequent test date) was 57.6 µM and the IC50 (OVCAR-5; 48 h, Ovarian Cancer OVCAR-5) was 45.7 µM. For the same compound, the IC50 (OVCAR-5; OVCAR-5, subsequent test date) was 51.3 µM, the IC50 (OVCAR-3; 48 h, Ovarian Cancer OVCAR-3) was 56 µM and the IC50 (OVCAR-3; OVCAR-3, subsequent test date) was 56.7 µM. It also gave an IC50 (UACC-62; 48 h, Melanoma UACC-62) of 7.61 µM, an IC50 (UACC-62; UACC-62, subsequent test date) of 59.7 µM and an IC50 (RXR-631; 48 h, Renal Cancer RXR-631) of 6.61 µM. For the same compound, the IC50 (RXR-631; RXR-631, subsequent test date) was 9.95 µM.
With `CN(C)CCNC(=O)c1nc(NC(=O)c2nc(NC(=O)c3nc(NC(=O)c4ccc(N(CCCl)CCCl)cc4)cn3C)cn2C)cn1C` [Compound 7, N-(N',N'-dimethylaminoethyl)-1-methyl-4-{1-methyl-4-[4-(4,4-bis-(2-chloroethyl)aminobenzamido)-1-methylimidazole-2-carboxamido]imidazole-2-carboxamido}imidazole-2-carboxamide] the IC50 (CAKI-1; 48 h, Renal Cancer CAKI-1) was greater than 100 µM, the IC50 (SNB-75; 48 h, CNS Cancer SNB-75) was 0.61 µM and the IC50 (LXFL529; LXFL529, subsequent test date) was 0.54 µM. It also gave an IC50 (TK-10; 48 h, Renal Cancer TK-10) of 4.2 µM, an IC50 (TK-10; TK-10, subsequent test date) of 3.51 µM and an IC50 (ACHN; 48 h, Renal Cancer ACHN) of 7.05 µM. It also gave an IC50 (ACHN; ACHN, subsequent test date) of 4.92 µM, an IC50 (786-0; 786-0, subsequent test date) of 0.51 µM and an IC50 (HOP-92) of 3.33 µM. It also gave an IC50 (CCRF-CEM; 48 h, Leukemia CCRF-CEM) of 1.52 µM, an IC50 (SK-OV-3; 48 h, Ovarian Cancer SK-OV-3) of 0.83 µM and an IC50 (SK-OV-3; SK-OV-3, subsequent test date) of 0.48 µM. For the same compound, the IC50 (SK-MEL-5; 48 h, Melanoma SK-MEL-5) was 0.63 µM, the IC50 (M19-MEL; M19-MEL, subsequent test date) was 0.78 µM and the IC50 (RXF-393; 48 h, Renal Cancer RXF-393) was 0.66 µM. The IC50 (M14; M14, subsequent test date) was 0.59 µM, the IC50 (SR; 48 h, Leukemia SR) was 0.91 µM and the IC50 (OVCAR-4; 48 h, Ovarian Cancer OVCAR-4) was 0.61 µM. The IC50 (OVCAR-4; OVCAR-4, subsequent test date) was 0.5 µM, the IC50 (SK-MEL-28; 48 h, Melanoma SK-MEL-28) was 0.91 µM and the IC50 (SK-MEL-28; [1]) was 0.64 µM. For the same compound, the IC50 (SN12C; SN12C, subsequent test date) was 0.61 µM, the IC50 (LOX 1MV1; 48 h, Melanoma LOX 1MV1) was 0.89 µM and the IC50 (LOX 1MV1; LOX 1MV1, subsequent test date) was 4.51 µM. For the same compound, the IC50 (SNB-19; 48 h, CNS Cancer SNB-19) was greater than 100 µM, the IC50 (A498; 48 h, Renal Cancer A498) was 7.76 µM and the IC50 (SK-MEL-2; 48 h, Melanoma SK-MEL-2) was 0.65 µM. For the same compound, the IC50 (OVCAR-5; 48 h, Ovarian Cancer OVCAR-5) was 6.13 µM, the IC50 (OVCAR-5; OVCAR-5, subsequent test date) was 5.24 µM and the IC50 (OVCAR-3; 48 h, Ovarian Cancer OVCAR-3) was 0.72 µM. The IC50 (OVCAR-3; OVCAR-3, subsequent test date) was 0.62 µM and the IC50 (RXR-631; 48 h, Renal Cancer RXR-631) was 5.97 µM.
`CN(C)CCNC(=O)c1nc(NC(=O)c2nc(NC(=O)CCCc3ccc(N(CCCl)CCCl)cc3)cn2C)cn1C` [Compound 9, N-(N',N'-dimethylaminoethyl)-1-methyl-4-{4-[4,4-bis(2-chloroethyl)aminophenyl-1-butanamido]-1-methylimidazole-2-carboxamido}imidazole-2-carboxamide] was tested, and the IC50 (LOX IMVI) was 49.5 µM.
`CN(C)CCNC(=O)c1nc(NC(=O)c2nc(NC(=O)c3nc(NC(=O)CCCc4ccc(N(CCCl)CCCl)cc4)cn3C)cn2C)cn1C` [Compound 10, N-(N',N'-dimethylaminoethyl)-1-methyl-4-{1-methyl-4-[4-(4,4-bis(2-chloroethyl)aminophenyl-1-butanamido)-1-methylimidazole-2-carboxamido]imidazole-2-carboxamido}imidazole-2-carboxamide] was tested, and the IC50 (RPMI-8226; 48 h, Leukemia RPMI-8226) was 9.5 µM, the IC50 (LOX IMVI) was 6.44 µM and the IC50 (SNB-78; 48 h, CNS Cancer SNB-78) was 9.75 µM.
